Test results taken from patent EP1200395B1, “UREA DERIVATIVES AS INHIBITORS OF CCR-3 RECEPTOR” (KIRIN BEER KABUSHIKI KAISHA, priority 1999, dated 2001).
Structures can show the parent of a compound that is named as a salt. Each block holds one molecule with its values, some of them ahead of it.

Target: T1, CCR-3 (Homo sapiens, UniProt P51677)
T1 sequence (P51677 1-355): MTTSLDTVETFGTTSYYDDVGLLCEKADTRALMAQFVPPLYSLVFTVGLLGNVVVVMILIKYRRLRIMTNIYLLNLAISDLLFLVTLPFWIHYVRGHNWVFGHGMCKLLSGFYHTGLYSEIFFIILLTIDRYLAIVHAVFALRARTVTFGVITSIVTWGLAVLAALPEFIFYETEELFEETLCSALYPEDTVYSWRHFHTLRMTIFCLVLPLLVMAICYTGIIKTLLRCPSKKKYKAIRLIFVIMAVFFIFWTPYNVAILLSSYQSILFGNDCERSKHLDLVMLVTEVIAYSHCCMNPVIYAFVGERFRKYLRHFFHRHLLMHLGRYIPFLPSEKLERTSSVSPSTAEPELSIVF
Experiment: Eotaxin-induced chemotaxis of CCR-3 transfectant cells (CCR3/U937)
Type: cell-based
Set-up: expressed in transfected cells; host or cells: U937
Details: eotaxin 1 x 10^-9 M; for Chemotaxis Assay 10 µM (inhibition %) / inhibition at 10 µM: 10 µM test compound; for inhibition at 10 µM: U-937; for Chemotaxis Assay 0.1 µg/ml (inhibition %): test compound 0.1 µg/ml, CCR3/U937 transfectants, 37 °C, 1 hour

- inhibition at 10 µM (CCR3/U937 cells (Table 3a)): 89%
Structure (SMILES): CC(c1ccc(Cl)cc1)N(CCCNC(=O)Nc1ccc(Br)cc1)CCCC(=O)O (centres unmarked) [Compound 272, 4-[[3-(4-Bromophenylureido)propyl][1-(4-chlorophenyl)ethyl]amino]butanoic acid]

- inhibition at 10 µM (CCR3/U937 cells (Table 3c)): 100%
Structure (SMILES): CC[N+](CCCNC(=O)Nc1ccccc1)(CCc1ccc(Cl)cc1)Cc1ccccc1 (centres unmarked) [Compound 302, [3-(Phenylureido)propyl][2-(4-chlorophenyl)ethyl](benzyl)ethylammonium iodide]

- Chemotaxis Assay 10 µM (inhibition %) (CCR3/U937 cells (Table 3a)): 100%
Structure (SMILES): C=CCN(CCCNC(=O)Nc1ccccc1)CCc1ccc(Cl)cc1 [Compound 221]

- Chemotaxis Assay 10 µM (inhibition %) (CCR3/U937 cells (Table 3c)): 100%
Structure (SMILES): CC[N+](CCCNC(=O)Nc1ccccc1)(CCc1ccc(Cl)cc1)Cc1ccc(F)cc1F.[I-] (centres unmarked) [compound 339]

- inhibition at 10 µM (CCR3/U937 cells (Table 3a)): 100%
Structure (SMILES): CCN(CCCNC(=O)Nc1ccc(Cl)cc1)CCc1ccc(Cl)cc1 [Compound 6]

- Chemotaxis Assay 10 µM (inhibition %) (CCR3/U937 cells (Table 3c)): 100%
Structure (SMILES): CC[N+](CCCNC(=O)Nc1ccccc1)(CCc1ccc(Cl)cc1)Cc1ccc(C)cc1.[I-] (centres unmarked) [Compound 297]

- Chemotaxis Assay 10 µM (inhibition %) (CCR3/U937 cells (Table 3a)): 84%
Structure (SMILES): NC(=O)CCN(CCCNC(=O)Nc1ccccc1)CCc1ccc(Cl)cc1 [Compound 243]

- Chemotaxis Assay 10 µM (inhibition %) (CCR3/U937 cells (Table 3a)): 100%
Structure (SMILES): CCN(CCCNC(=O)Nc1ccccc1)CCc1cccc(Cl)c1 [Compound 233]

- Chemotaxis Assay 10 µM (inhibition %) (CCR3/U937 cells (Table 3c)): 100%
Structure (SMILES): CC[N+](CCCNC(=O)Nc1ccccc1)(CCc1ccc(Cl)cc1)Cc1ccc(Cl)c(Cl)c1.[I-] (centres unmarked) [compound 349]

- Chemotaxis Assay 10 µM (inhibition %) (CCR3/U937 cells (Table 3a)): 65%
Structure (SMILES): O=C(O)CCCN(CCCNC(=O)Nc1ccccc1)CCc1ccc(Cl)cc1 [Compound 80]

- Chemotaxis Assay 10 µM (inhibition %) (CCR3/U937 cells (Table 3a)): 76%
Structure (SMILES): O=C(NCCCN(CCc1ccc(Cl)cc1)Cc1ccccc1)Nc1ccccc1 [Compound 28]

- Chemotaxis Assay 10 µM (inhibition %) (CCR3/U937 cells (Table 3c)): 100%
Structure (SMILES): CCCC[N+](CC)(CCCNC(=O)Nc1ccc(Br)cc1)CCc1ccc(Cl)cc1.[I-] (centres unmarked) [Compound 294]

- Chemotaxis Assay 10 µM (inhibition %) (CCR3/U937 cells (Table 3a)): . 97%
Structure (SMILES): COC(=O)CCCN(CCCNC(=O)Nc1ccc(Br)cc1)CCc1ccc(Cl)cc1 [Compound 31, Methyl 4-[[3-(4-bromophenylureido)pcopyl][2-(4-chlorophenyl)-ethyl]amino]butylate]

- Chemotaxis Assay 10 µM (inhibition %) (CCR3/U937 cells (Table 3a)): 100%
Structure (SMILES): CCN(CCCNC(=O)Nc1ccccc1)CCc1ccc(F)cc1 [Compound 230]

- Chemotaxis Assay 0.1 µg/ml (inhibition %): 43%
Structure (SMILES): CC[N+](CCCNC(=O)Nc1ccc(C(F)(F)F)cc1)(CCOCCOC)CCc1ccc(Cl)cc1.[I-] (centres unmarked) [compound 386]

- Chemotaxis Assay 10 µM (inhibition %) (CCR3/U937 cells (Table 3a)): 60%
Structure (SMILES): O=C(NCCCN(CCc1cccc(Cl)c1)Cc1ccccc1)Nc1ccccc1 [Compound 280]

- Chemotaxis Assay 10 µM (inhibition %) (CCR3/U937 cells (Table 3a)): 53%
Structure (SMILES): N#Cc1ccc(CN(CCCNC(=O)Nc2ccccc2)CCc2ccc(Cl)cc2)cc1 [Compound 291]

The next lines start with the molecule.

Structure (SMILES): CC[N+](CCCNC(=O)Nc1ccccc1)(CCc1ccc(Cl)cc1)Cc1ccc(C#N)cc1.[I-] (centres unmarked) [compound 345]
- Chemotaxis Assay 10 µM (inhibition %) (CCR3/U937 cells (Table 3c)): 100%

Structure (SMILES): CCOC(=O)CCCN(CCCNC(=O)Nc1ccc(Br)cc1)C1CCCc2ccccc21 (centres unmarked) [Compound 184, Ethyl 4-[[3-(4-bromophenylureido)propyl](1,2,3,4-tetrahydro-1-naphthyl)amino]burylate]
- Chemotaxis Assay 10 µM (inhibition %) (CCR3/U937 cells (Table 3a)): 100%

Structure (SMILES): O=C(O)CCCN(CCCCNC(=O)Nc1ccc(Br)cc1)C1CCCc2ccccc21 (centres unmarked) [Compound 62, 4-[[4-(4-Bromophenylureido)butyl](1,2,3,4-tetrahydro-1-naphthyl)-amino]butanoic acid]
- inhibition at 10 µM (CCR3/U937 cells (Table 3a)): 98%

Structure (SMILES): CC(=O)c1cccc(NC(=O)NCCCN(CCCC(=O)O)C2CCCc3ccccc32)c1 (centres unmarked) [Compound 262]
- Chemotaxis Assay 10 µM (inhibition %) (CCR3/U937 cells (Table 3a)): 62%

Structure (SMILES): CC[N+](CCCNC(=O)Nc1ccc(Br)cc1)(CCOCCOC)CCc1cccc(Cl)c1.[I-] (centres unmarked) [compound 373]
- Chemotaxis Assay 0.1 µg/ml (inhibition %): 100%

Structure (SMILES): CC[N+](CCF)(CCCNC(=O)Nc1ccc(Br)cc1)CCc1ccc(Cl)c(Cl)c1.[I-] (centres unmarked) [compound 384]
- Chemotaxis Assay 0.1 µg/ml (inhibition %): 76%

Structure (SMILES): O=C(O)CCCN(CCCNC(=O)Nc1ccc(Br)cc1)Cc1ccco1 [Compound 68]
- Chemotaxis Assay 10 µM (inhibition %) (CCR3/U937 cells (Table 3a)): 31%

Structure (SMILES): CCC(CC)C[N+](CC)(CCCNC(=O)Nc1ccccc1)CCc1ccc(Cl)cc1Cl.[I-] (centres unmarked) [compound 429]
- Chemotaxis Assay 0.1 µg/ml (inhibition %): 64%

Structure (SMILES): COC(=O)CCCN(CCCNC(=O)Nc1ccc(Br)cc1)[C@H](C)c1ccccc1 [Compound 30, Methyl 4-[[3-(4-bromophenylureido)propyl][(1R)-1-phenylethyl]-amino]butylate]
- Chemotaxis Assay 10 µM (inhibition %) (CCR3/U937 cells (Table 3a)): 100%

Structure (SMILES): CC[N+](CCF)(CCCNC(=O)Nc1ccc(C(F)(F)F)cc1)CCc1cccc(Cl)c1.[I-] (centres unmarked) [compound 391]
- Chemotaxis Assay 0.1 µg/ml (inhibition %): 47%

Structure (SMILES): O=C(O)CN(CCCNC(=O)Nc1ccc(Br)cc1)C1CCCc2ccccc21 (centres unmarked) [Compound 186]
- Chemotaxis Assay 10 µM (inhibition %) (CCR3/U937 cells (Table 3a)): 69%

Structure (SMILES): CC(c1ccc2ccccc2c1)N(CCCNC(=O)Nc1ccc(Br)cc1)CCCC(=O)O (centres unmarked) [Compound 270]
- Chemotaxis Assay 10 µM (inhibition %) (CCR3/U937 cells (Table 3a)): 100%

Structure (SMILES): O=C(NCCCN(CCCCO)C1CCCc2ccccc21)Nc1ccc(Br)cc1 (centres unmarked) [Compound 203, 4-[[3-(4-Bromophenylureido)propyl](1,2,3,4-tetrahydro-1-naphthyl)amino]-1-butanol]
- inhibition at 10 µM (CCR3/U937 cells (Table 3a)): 100%

Structure (SMILES): CC[N+](CC)(CCCNC(=O)Nc1ccccc1)CCc1ccc(F)cc1.[I-] [Compound 306]
- Chemotaxis Assay 10 µM (inhibition %) (CCR3/U937 cells (Table 3c)): 100%

Structure (SMILES): CC[N+](CCCNC(=O)Nc1ccccc1)(CCc1ccc(Cl)cc1)Cc1cccc(OC)c1.[I-] (centres unmarked) [compound 331]
- Chemotaxis Assay 10 µM (inhibition %) (CCR3/U937 cells (Table 3c)): 100%

Structure (SMILES): C[C@@H](c1ccc(Br)cc1)N(CCCNC(=O)Nc1ccc(Br)cc1)CCCC(=O)O [Compound 293, 4-[[3-(4-Bromophenylureido)propyl][(1S)-1-(4-bromophenyl)ethyl]amino]butanoic acid]
- inhibition at 10 µM (CCR3/U937 cells (Table 3a)): 95%

Structure (SMILES): O=C(O)CCCN(CCCNC(=O)Nc1cccc2ccccc12)C1CCCc2ccccc21 (centres unmarked) [Compound 90]
- Chemotaxis Assay 10 µM (inhibition %) (CCR3/U937 cells (Table 3a)): 100%

Structure (SMILES): CC[N+](CCF)(CCCNC(=O)Nc1ccc(Cl)c(Cl)c1)CCc1ccccc1.[I-] (centres unmarked) [compound 370]
- Chemotaxis Assay 0.1 µg/ml (inhibition %): 64%

Structure (SMILES): C=C(C)C[N+](CC)(CCCNC(=O)Nc1ccccc1)CCc1ccc(Cl)c(Cl)c1.[I-] (centres unmarked) [compound 425]
- Chemotaxis Assay 0.1 µg/ml (inhibition %): 93%

Structure (SMILES): CC(=O)OCCCCN(CCCNC(=O)Nc1ccc(Br)cc1)C1CCCc2ccccc21 (centres unmarked) [Compound 202]
- Chemotaxis Assay 10 µM (inhibition %) (CCR3/U937 cells (Table 3a)): 100%

Structure (SMILES): CC[N+](CCCNC(=O)Nc1ccccc1)(CCc1ccc(Cl)cc1)Cc1ccc(C(C)(C)C)cc1.[I-] (centres unmarked) [compound 342]
- Chemotaxis Assay 10 µM (inhibition %) (CCR3/U937 cells (Table 3c)): 97%

Structure (SMILES): COc1ccc(NC(=O)NCCCN(CCCC(=O)O)C2CCCc3ccccc32)cc1 (centres unmarked) [Compound 88]
- Chemotaxis Assay 10 µM (inhibition %) (CCR3/U937 cells (Table 3a)): 100%

Structure (SMILES): CC[N+](CCCNC(=O)Nc1ccc(Br)cc1)(CCCC(=O)O)[C@H](C)c1ccccc1 (stereo partly drawn) [Compound 316, [3-(4-Bromophenylureido)propyl][(1R)-1-phenylethyl][3-(carboxy)propyl]ethylammonium trifluoroacetate]
- inhibition at 10 µM (CCR3/U937 cells (Table 3c)): 82%

Structure (SMILES): CC[N+](CCCNC(=O)Nc1ccccc1)(CCc1ccc(Cl)c(Cl)c1)CC1CCC1.[I-] (centres unmarked) [compound 420]
- Chemotaxis Assay 0.1 µg/ml (inhibition %): 99%

Structure (SMILES): CC[N+](CCF)(CCCNC(=O)Nc1ccccc1)CCc1ccc(Cl)c(Cl)c1.[I-] (centres unmarked) [compound 434]
- Chemotaxis Assay 0.1 µg/ml (inhibition %): 100%

Structure (SMILES): COC(=O)CCCN(CCCNC(=O)Nc1ccc(Br)cc1)C(C)(C)Cc1ccccc1 [Compound 206]
- Chemotaxis Assay 10 µM (inhibition %) (CCR3/U937 cells (Table 3a)): 64%

Structure (SMILES): COC(=O)CCCCN(CCCNC(=O)Nc1ccc(Br)cc1)C1CCCc2ccccc21 (centres unmarked) [Compound 213]
- Chemotaxis Assay 10 µM (inhibition %) (CCR3/U937 cells (Table 3a)): 92%

Structure (SMILES): COC(=O)CCCN(CCCNC(=O)Nc1ccc(Br)cc1)Cc1ccncc1 [Compound 48]
- Chemotaxis Assay 10 µM (inhibition %) (CCR3/U937 cells (Table 3a)): 34%

Structure (SMILES): O=C(O)CCCN(CCCNC(=O)Nc1ccc(OC(F)(F)F)cc1)C1CCCc2ccccc21 (centres unmarked) [Compound 266]
- Chemotaxis Assay 10 µM (inhibition %) (CCR3/U937 cells (Table 3a)): 100%

Structure (SMILES): O=C(NCCCN(CCCO)C1CCCc2ccccc21)Nc1ccc(Br)cc1 (centres unmarked) [Compound 216]
- Chemotaxis Assay 10 µM (inhibition %) (CCR3/U937 cells (Table 3a)): 100%

Structure (SMILES): CC[N+](CCCNC(=O)Nc1ccc(Br)cc1)(CCCC(=O)OC)C1CCc2ccccc21.[I-] (centres unmarked) [compound 314]
- Chemotaxis Assay 10 µM (inhibition %) (CCR3/U937 cells (Table 3c)): 100%

Structure (SMILES): CCC(CC)C[N+](CC)(CCCNC(=O)Nc1ccccc1)CCc1cccc(Cl)c1.[I-] (centres unmarked) [compound 428]
- Chemotaxis Assay 0.1 µg/ml (inhibition %): 93%

Structure (SMILES): O=C(O)CCCN(CCCNC(=O)Nc1cccc(Br)c1)C1CCCc2ccccc21 (centres unmarked) [Compound 199]
- Chemotaxis Assay 10 µM (inhibition %) (CCR3/U937 cells (Table 3a)): 100%

Structure (SMILES): CC[N+](CCF)(CCCNC(=O)Nc1ccc(C#N)cc1)CCc1ccc(Cl)cc1Cl.[I-] (centres unmarked) [compound 404]
- Chemotaxis Assay 0.1 µg/ml (inhibition %): 47%

Structure (SMILES): CC[N+](CCF)(CCCNC(=O)Nc1ccc(OC)cc1)CCc1ccc(Cl)cc1Cl.[I-] (centres unmarked) [compound 452]
- Chemotaxis Assay 0.1 µg/ml (inhibition %): 59%

Structure (SMILES): CCOC(=O)C1CC1CN(CCCNC(=O)Nc1ccc(Br)cc1)C1CCCc2ccccc21 (centres unmarked) [Compound 224]
- Chemotaxis Assay 10 µM (inhibition %) (CCR3/U937 cells (Table 3a)): 75%
